Among the data in BindingDB's records for doi:10.1021/acs.jmedchem.8b01153 (2019) are koff values, retold here.

In experiment [1] the target is T1, Induced myeloid leukemia cell differentiation protein Mcl-1 (Homo sapiens, UniProt Q07820). Nature of the experiment: Binding affinity to MCl-1 (unknown origin) assessed as dissociation rate constant for state one.
In experiment [2] the target is T1, Induced myeloid leukemia cell differentiation protein Mcl-1. Nature of the experiment: Binding affinity to MCl-1 (unknown origin) assessed as dissociation rate constant for state two.

T1 sequence (Q07820 whole entry): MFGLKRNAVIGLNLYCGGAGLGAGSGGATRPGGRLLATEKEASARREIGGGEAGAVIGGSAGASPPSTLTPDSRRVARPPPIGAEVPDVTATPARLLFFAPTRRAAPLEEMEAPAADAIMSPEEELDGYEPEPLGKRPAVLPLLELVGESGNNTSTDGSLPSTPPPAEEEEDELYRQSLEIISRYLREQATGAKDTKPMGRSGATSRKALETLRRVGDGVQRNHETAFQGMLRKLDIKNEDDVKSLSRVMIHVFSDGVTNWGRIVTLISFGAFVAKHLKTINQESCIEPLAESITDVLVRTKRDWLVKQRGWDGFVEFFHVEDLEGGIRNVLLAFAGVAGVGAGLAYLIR

For orientation: koff means the rate constant with which the complex falls apart. `Cc1c(-c2cccc3c(CCCOc4cccc5ccccc45)c(C(=O)O)n(C)c23)c(COc2ccc(B(O)O)c(C=O)c2)nn1C` [7-(3-((4-Borono-3-formylphenoxy)methyl)-1,5-dimethyl-1Hpyrazol-4-yl)-1-methyl-3-(3-(naphthalen-1-yloxy)propyl)-1H-indole-2-carboxylic acid, 11]: the figures for the koff in experiment [1] and in experiment [2] were 0.13 s⁻¹ and 0.01 s⁻¹, respectively.
For the compound `Cc1c(-c2cccc3c(CCCOc4cccc5ccccc45)c(C(=O)O)[nH]c23)c(COc2ccc(B(O)O)c(C=O)c2)nn1C` [7-(3-((4-Borono-3-formylphenoxy)methyl)-1,5-dimethyl-1Hpyrazol-4-yl)-3-(3-(naphthalen-1-yloxy)propyl)-1H-indole-2-carboxylic acid, 5], the dissociation rate constant (koff) came out at 0.14 s⁻¹ in experiment [1] and 0.018 s⁻¹ in experiment [2].
